Like-named read-outs stand apart in the source and are kept apart here. Each block holds one compound with its values, some of them ahead of it. Starred links: 1 amine or outer side, 2 acyl side, 3 side chain; linkers in the order of their positions; H or OH if unused. Positions of bridges follow the written chain, without caps; N, C: chain ends. Non-standard residues stand in square brackets, D forms with d. Residues, ends and D or L forms follow the SMILES beside them. *: point of attachment. Perfluorobiphenyl(4,4') = Fc1c(F)c([*:1])c(F)c(F)c1-c1c(F)c(F)c([*:2])c(F)c1F; Biotin = O=C1N[C@H]2[C@H](CS[C@H]2CCCCC(=O)*)N1
Tests used:
[1] = Solubility of cyclized peptide analogs
M2 macrophages [2] = assay: Binding study of biotinylated peptides on polarized bone marrow-derived macrophages (streptavidin-FITC, flow cytometry); assay type: cell-based, mouse; settings: for Kd: M2 macrophages, half-maximal MFI, read-out: apparent dissociation constant (KD); for binding activity to M2 macrophages (in words): biotinylated peptide, on ice 20 min
Experimental: All animal handling protocols were approved by the University of Washington Institutional Animal Care and Use Committee. Bone marrow harvest was performed following the previously reported protocol. Briefly, femur and tibia were excised from 6-8 week-old female c57bl6/027 mice. Cuts were made on the ends of each bone, and RPMI 1640 medium was used to flush out bone marrow cells via 18G needle. The cells were cultured on petri dishes in RPMI 1640 medium supplemented with 20% donor horse serum, 1% antibiotic-antimycotic (AbAm), and 20 ng/mL M-CSF. After 7 d of culture, macrophages were activated by replacing M-CSF with 25 ng/mL IFN-γ and 100 ng/mL LPS for M1 macrophage or 25 ng/mL IL-4 for M2 macrophage. The macrophages were activated for 2 d and then scraped off the petri dishes with cell lifter for binding studies.
(§1) Peptide solutions at different concentrations for binding study were prepared by dilutions from the stock solution (10 mg/mL in dH2O) with PBS containing 1% BSA (PBSA). M1 and M2 macrophages (50,000 cells/well) were seeded on a black 96-well plate and incubated in the peptide solutions on ice for 20 min. Unbound peptides were washed off with PBSA twice. The macrophages were subsequently incubated with streptavidin-FITC for 15 min on ice to probe for the bound peptides. Excess streptavidin-FITC was washed off with PBSA twice, and the macrophages were then resuspended in PBS for analysis by MACSQuant Flow Cytometer (Miltenyi Biotec, San Diego, Calif.). Propidium iodide was added to the samples before the data acquisition to discriminate dead cells. Flow cytometry data were analyzed with FlowJo Analysis Software (Tree Star, Ashland, Oreg.). Binding study of peptides post serum incubation was similarly performed with the following additions: The peptides (5 mM stock solution in H2O) were diluted in serum to a final concentration of 0.5 mM and incubated at 37° C. in an incubator. At each time point, an aliquot of the peptides was drawn and diluted in PBS to the final concentration for the binding study. The diluted aliquot was heated at 80° C. for 30 min to inactivate serum proteins, stored in a −20° C. freezer, and thawed for use in the binding study after aliquots at all time points were collected.
All animal handling protocols were approved by the University of Washington Institutional Animal Care and Use Committee. Bone marrow-derived cells were harvested from female c57bl/6 mice as previously described. In brief, femurs and tibias of the mice were excised and flushed with RPMI 1640 medium via an 18G needle. The cells were cultured on petri dishes containing RPMI 1640 medium supplemented with 20% donor horse serum, 1% antibioticantimycotic (AbAm), and 20 ng/mL M-CSF. After 7 d in culture, the medium was replaced with an activation medium whereby M-CSF was replaced with 25 ng/mL IFN-γ and 100 ng/mL LPS for M1 activation or with 25 ng/mL IL-4 for M2 activation. For M1 activation medium, AbAm was replaced with 1% penicillin-streptomycin (Pen-Strep). After 2 d of activation, the activated macrophages were scraped off the petri dishes for binding studies.
Biotinylated peptide stock solutions were prepared in H2O at 10 mg/mL concentration and quantified for the exact concentration using Quant*Tag Biotin quantification kit. The stock solutions were diluted in PBS with 1% BSA (PBSA) to different concentrations for binding studies. Activated macrophages were seeded on a black 96-well plate (50,000 cells/well) and incubated with the peptide solutions for 20 min on ice. The cells were washed twice with PBSA and subsequently incubated with streptavidin-FITC for 15 min on ice. After two additional washes, the cells were resuspended in PBS for analysis via MACSQuant Flow Cytometer (Miltenyi Biotec, San Diego, Calif.). Propidium iodide (PI) was added before running each sample to assess for cell viability. Data analysis was processed on FlowJo Analysis Software (Tree Star, Ashland, Oreg.). […]

M2 macrophages [3] = assay: Binding of M2pep analogs post serum incubation; assay type: cell-based, mouse; settings: for decline in binding activity with serum pre-incubation: 150 μM of M2pepBiotin, 50 μM of AcM2pep(RY)Biotin and cyclic M2pep(RY)Biotin, mouse serum 37° C.
Experimental: as §1
For TAM targeting applications, M2pep analogs will be exposed to serum during systemic circulation. Therefore, we next studied how the serum stability of M2pep analogs affects subsequent binding to target cells. Peptides were incubated with mouse serum at 37° C. to mimic peptidase exposure in systemic circulation, and aliquots of the serum were withdrawn at various time points for binding studies with polarized macrophages. In general, binding activity of the M2pep analogs corresponded with the peptides' serum stability (FIG. 6). […]

[4] = Serum stability study in normal mouse serum, analysis by MALDI-TOF MS; settings: for overall serum stability (in words): MALDI-TOF MS
Experimental: The peptide of interest (30 μL of 10 mg/mL stock solution in dH2O) was added to normal mouse serum (300 μL) and incubated at 37° C. in an incubator. At each time point, an aliquot of 40 μL was drawn and an equal volume of ACN was added to the aliquot to precipitate serum proteins. The cloudy mixture was centrifuged at 10,000 rpm for 5 min and then supernatant removed. A solution of 1:1 H2O/ACN (80 μL) was added to the pellet and sonicated for 10 min to further extract the remaining peptides. This resuspended mixture was then centrifuged, and the supernatant was pooled with the former and vacuum-dried on a Speedvac machine. The dried pellet was solubilized in H2O (50 μL) by sonication for 10 min. The mixture was then centrifuged, and the supernatant was drawn and analyzed by MALDI-TOF MS.
To evaluate serum stability of M2pep, the peptide was incubated in mouse serum, and aliquots of the serum at various time points were withdrawn for analysis of degradation patterns by MALDI-TOF MS.
Different M2pep analogs (30 μL from 10 mg/mL stock solution in H2O) were incubated in normal mouse serum (300 μL) at 37° C. in an incubator. An aliquot of the serum (40 μL) was drawn at different time intervals and precipitated with an equal volume of cold ACN. The mixture was centrifuged at 15,000 rpm for 5 min, and the supernatant was collected. A solution of H2O/ACN (1:1 v/v, 80 μL) was added to the pellet with a 10-min sonication to further extract residual peptides. The mixture was then centrifuged. The supernatant was pooled with the former and dried under vacuum on a Speedvac machine. The peptide pellet was resuspended in H2O (50 μL) with a 10-min sonication before analysis by MALDI-ToF MS.

Structure (SMILES): CC(C)[C@@H]1NC(=O)CNC(=O)[C@H](Cc2c[nH]c3ccccc23)NC(=O)[C@@H]2CCCN2C(=O)[C@H](CC(=O)O)NC(=O)[C@H](CCC(N)=O)NC(=O)[C@H](CCC(=O)O)NC(=O)[C@H](Cc2ccc(O)cc2)NC(=O)CNC(=O)[C@@H](N)CSc2c(F)c(F)c(c(F)c2F)-c2c(F)c(F)c(c(F)c2F)SC[C@@H](C(=O)N[C@H](CCCCN)C(=O)N[C@H](CCCCN)C(=O)N[C@H](CCCCN)C(=O)N[C@@H](CCCCNC(=O)CCCC[C@@H]2SC[C@@H]3NC(=O)N[C@@H]32)C(N)=O)NC(=O)CNC(=O)[C@H](Cc2ccc(O)cc2)NC(=O)[C@H](Cc2c[nH]c3ccccc23)NC(=O)[C@H](Cc2ccc(O)cc2)NC(=O)[C@H](CCCNC(=N)N)NC1=O [DFBP-cyclized M2pep(RY)Biotin] (H-CGYEQDPWGVRYWYGC[dK][dK][dK]K(Biotin)-NH2; linker 1-16 via Perfluorobiphenyl(4,4'))
solubility (in words) [1]: higher solubility than FF-cyclized M2pep(RY)Biotin

overall serum stability (in words) ([4]; mouse serum, 37° C.): Poor serum stability
Structure (SMILES): CC(C)[C@H](NC(=O)CNC(=O)[C@H](Cc1c[nH]c2ccccc12)NC(=O)[C@@H]1CCCN1C(=O)[C@H](CC(=O)O)NC(=O)[C@H](CCC(N)=O)NC(=O)[C@H](CCC(=O)O)NC(=O)[C@@H](N)Cc1ccc(O)cc1)C(=O)N[C@@H](CCCCN)C(=O)N[C@@H](Cc1c[nH]c2ccccc12)C(=O)N[C@@H](Cc1c[nH]c2ccccc12)C(=O)N[C@@H](Cc1ccc(O)cc1)C(=O)NCC(=O)NCC(=O)NCC(=O)N[C@@H](CO)C(=O)N[C@@H](CCCCN)C(=O)N[C@@H](CCCCN)C(=O)N[C@@H](CCCCNC(=O)CCCC[C@@H]1SC[C@@H]2NC(=O)N[C@@H]21)C(N)=O [M2pepBiotin, YEQDPWGVKWWYGGGSKK]
Kd (M2 macrophages [2]): 220 µM | decline in binding activity with serum pre-incubation (M2 macrophages [3]): fastest and greatest decline in binding activity

Structure (SMILES): CC(=O)N[C@@H](Cc1ccc(O)cc1)C(=O)N[C@@H](CCC(=O)O)C(=O)N[C@@H](CCC(N)=O)C(=O)N[C@@H](CC(=O)O)C(=O)N1CCC[C@H]1C(=O)N[C@@H](Cc1c[nH]c2ccccc12)C(=O)NCC(=O)N[C@H](C(=O)N[C@@H](CCCCN)C(=O)N1CCC[C@H]1C(=O)N[C@@H](Cc1c[nH]c2ccccc12)C(=O)N[C@@H](Cc1ccc(O)cc1)C(=O)NCC(=O)NCC(=O)NCC(=O)N[C@@H](CO)C(=O)N[C@H](CCCCN)C(=O)N[C@H](CCCCN)C(=O)N[C@H](CCCCN)C(=O)N[C@@H](CCCCNC(=O)CCCC[C@@H]1SC[C@@H]2NC(=O)N[C@@H]21)C(N)=O)C(C)C [W10P, Ac-YEQDPWGVKPWYGGGSkkk] (Ac-YEQDPWGVKPWYGGGS[dK][dK][dK]K(Biotin)-NH2)
binding activity to M2 macrophages (in words) (M2 macrophages [2]): abrogated the binding activity | serum stability at the W10/W11 endolytic cleavage site ([4]; mouse serum): did not confer protection at the W10/W11 site

Structure (SMILES): CC(=O)N[C@@H](Cc1ccc(O)cc1)C(=O)N[C@@H](CCC(=O)O)C(=O)N[C@@H](CCC(N)=O)C(=O)N[C@@H](CC(=O)O)C(=O)N1CCC[C@H]1C(=O)N[C@@H](Cc1c[nH]c2ccccc12)C(=O)NCC(=O)N[C@H](C(=O)N[C@@H](CCCCN)C(=O)N[C@@H](Cc1ccc(O)cc1)C(=O)N[C@@H](Cc1c[nH]c2ccccc12)C(=O)N[C@@H](Cc1ccc(O)cc1)C(=O)NCC(=O)NCC(=O)NCC(=O)N[C@@H](CO)C(=O)N[C@H](CCCCN)C(=O)N[C@H](CCCCN)C(=O)N[C@H](CCCCN)C(=O)N[C@@H](CCCCNC(=O)CCCC[C@@H]1SC[C@@H]2NC(=O)N[C@@H]21)C(N)=O)C(C)C [W10Y, Ac-YEQDPWGVKYWYGGGSkkk] (Ac-YEQDPWGVKYWYGGGS[dK][dK][dK]K(Biotin)-NH2)
binding activity to M2 macrophages (in words) (M2 macrophages [2]): significantly increased binding activity | serum stability at the W10/W11 endolytic cleavage site ([4]; mouse serum): did not confer protection at the W10/W11 site

Structure (SMILES): CC(=O)N[C@@H](Cc1ccc(O)cc1)C(=O)N[C@@H](CCC(=O)O)C(=O)N[C@@H](CCC(N)=O)C(=O)N[C@@H](CC(=O)O)C(=O)N1CCC[C@H]1C(=O)N[C@@H](Cc1c[nH]c2ccccc12)C(=O)NCC(=O)N[C@H](C(=O)N[C@@H](CCCCN)C(=O)N[C@H](Cc1c[nH]c2ccccc12)C(=O)N[C@@H](Cc1c[nH]c2ccccc12)C(=O)N[C@@H](Cc1ccc(O)cc1)C(=O)NCC(=O)NCC(=O)NCC(=O)N[C@@H](CO)C(=O)N[C@@H](CCCCN)C(=O)N[C@@H](CCCCN)C(=O)N[C@@H](CCCCN)C(=O)N[C@@H](CCCCNC(=O)CCCC[C@@H]1SC[C@@H]2NC(=O)N[C@@H]21)C(N)=O)C(C)C [W10w, Ac-YEQDPWGVKwWYGGGSKKK]
binding activity to M2 macrophages (in words) (M2 macrophages [2]): abrogated binding activity | serum stability at the W10/W11 endolytic cleavage site ([4]; mouse serum): effective protection against endolytic cleavage at the W10/W11 site

Structure (SMILES): CC(=O)N[C@@H](Cc1ccc(O)cc1)C(=O)N[C@@H](CCC(=O)O)C(=O)N[C@@H](CCC(N)=O)C(=O)N[C@@H](CC(=O)O)C(=O)N1CCC[C@H]1C(=O)N[C@@H](Cc1c[nH]c2ccccc12)C(=O)NCC(=O)N[C@H](C(=O)N[C@@H](CCCNC(=N)N)C(=O)N[C@@H](Cc1ccc(O)cc1)C(=O)N[C@@H](Cc1c[nH]c2ccccc12)C(=O)N[C@H](Cc1ccc(O)cc1)C(=O)NCC(=O)NCC(=O)NCC(=O)N[C@@H](CO)C(=O)N[C@H](CCCCN)C(=O)N[C@H](CCCCN)C(=O)N[C@H](CCCCN)C(=O)N[C@@H](CCCCNC(=O)CCCC[C@@H]1SC[C@@H]2NC(=O)N[C@@H]21)C(N)=O)C(C)C [Y12y, Ac-YEQDPWGVRYWyGGGSkkk] (Ac-YEQDPWGVRYW[dY]GGGS[dK][dK][dK]K(Biotin)-NH2)
binding activity to M2 macrophages (in words) (M2 macrophages [2]): reduced binding activity | serum stability at the W10/W11 endolytic cleavage site ([4]; mouse serum): did not improve serum stability at the W10/W11 site

decline in binding activity with serum pre-incubation (M2 macrophages [3]): least decline | binding activity after 24 h serum incubation (M2 macrophages [3]; 24 h in mouse serum at 37° C.): retained the highest binding activity | serum incubation time at which the peptide remained detectable by MALDI-TOF MS ([4]; mouse serum, 37° C.): ≥ 48 h | time without endolytic cleavage at the W10/W11 site ([4]; mouse serum, 37° C.): at least 8 h | incubation in mouse serum after which the cyclized peptide was eventually degraded ([4]; prolonged incubation in mouse serum): more than 1 day
Structure (SMILES): CC(C)[C@@H]1NC(=O)CNC(=O)[C@H](Cc2c[nH]c3ccccc23)NC(=O)[C@@H]2CCCN2C(=O)[C@H](CC(=O)O)NC(=O)[C@H](CCC(N)=O)NC(=O)[C@H](CCC(=O)O)NC(=O)[C@H](Cc2ccc(O)cc2)NC(=O)CNC(=O)[C@@H](N)CSSC[C@@H](C(=O)N[C@H](CCCCN)C(=O)N[C@H](CCCCN)C(=O)N[C@H](CCCCN)C(=O)N[C@@H](CCCCNC(=O)CCCC[C@@H]2SC[C@@H]3NC(=O)N[C@@H]32)C(N)=O)NC(=O)CNC(=O)[C@H](Cc2ccc(O)cc2)NC(=O)[C@H](Cc2c[nH]c3ccccc23)NC(=O)[C@H](Cc2ccc(O)cc2)NC(=O)[C@H](CCCNC(=N)N)NC1=O [cyclic M2pep(RY)Biotin, CGYEQDPWGVRYWYGCkkk] (H-CGYEQDPWGVRYWYGC[dK][dK][dK]K(Biotin)-NH2; disulfide 1-16)
Kd (M2 macrophages [2]; listed as disulfide-cyclized M2pep(RY)): 36.3 µM | binding activity to M2 macrophages (in words) (M2 macrophages [2]): comparable binding activity to the linear AcM2pep(RY)Biotin | overall serum stability (in words) ([4]; mouse serum, 37° C.): markedly improved serum stability over the linear AcM2pep(RY)Biotin

— patent US20170246311A1, “PEPTIDES FOR BINDING ALTERNATIVELY ACTIVATED MACROPHAGES” (University of Washington, priority 2016, published 2017)
